From ChEMBL document CHEMBL5661943, “ASAP - In vitro antiviral effect” (2024)
Several values for one entry are separate records, joined by “and”; a condition that tells them apart may be missing. Identical values can stand only once.

What was measured:
dengue virus type 2 [1] = experiment: Functional assay to measure dose dependent changes in antiviral-drug inhibitory efficacy against Dengue virus type 2 New Guinea C in Vero E6 miRFP670 cells (cotreated with P-gp inhibitor, CP100356). Cells are treated with antiviral candidates that are serially diluted, following infection, cells are fixed. EC50 is reported via analysis of fluorescence intensity using high-content imager. The …; format: organism-based, Chlorocebus sabaeus, Vero C1008; conditions: Dengue virus, Vero C1008; for EC90: Baseline response 0 %, Maximum response 100 %, P-gp concentration 500 nM, P-gp inhibitor CP100356
dengue virus type 2 [2] = experiment: (§1) Functional immunofluorescence assay to measure dose dependent changes in antiviral-drug inhibitory efficacy against Dengue virus type 2 Thailand/16681/84 in Vero E6/TMPRSS2 cells (cotreated with P-gp inhibitor, Elacridar). Cells are treated with antiviral candidates that are serially diluted, following infection, cells are fixed. EC50 is reported via analysis of immunofluorescence staining. The assay has been performed by Icahn School of Medicine at Mount Sinai.; format: organism-based, Chlorocebus sabaeus, VeroE6/TMPRSS2; conditions: for EC90: Baseline response 0 %, Maximum response 100 %, P-gp concentration 2 uM, P-gp inhibitor Elacidar
Zika virus [3] = experiment: EC50 is reported via analysis of immunofluorescence staining. The assay has been performed by Icahn School of Medicine at Mount Sinai.; format: functional, organism-based, Chlorocebus sabaeus, VeroE6/TMPRSS2
Zika virus [4] = experiment: as §1, with “Zika” for “Dengue”, “PRVABC59” for “type 2 Thailand/16681/84”, “cells.” for “cells (cotreated with P-gp inhibitor, Elacridar).”; format: organism-based, Chlorocebus sabaeus
Zika virus [5] = experiment: (§2) Functional CPE-based assay to measure dose dependent changes in antiviral-drug inhibitory efficacy against Zika virus MR766 in Vero E6 miRFP670 cells. Cells are treated with antiviral candidates that are serially diluted. EC50 is reported via analysis of MTS assay as a readout of CPE. The assay has been performed by KU Leuven.; format: organism-based, Chlorocebus sabaeus, Vero C1008; conditions: Zika virus
dengue virus type 2 [6] = experiment: as §1, with “cells.” for “cells (cotreated with P-gp inhibitor, Elacridar).”; format: organism-based, Chlorocebus sabaeus; conditions: for EC50: VeroE6/TMPRSS2
dengue virus type 2 [7] = experiment: as §2, with “Dengue” for “Zika”, “type 2 New Guinea C” for “MR766”, “Huh7” for “Vero E6 miRFP670”, “MTT/MTS” for “MTS”, “National Institute of Allergy and Infectious Diseases.” for “KU Leuven.”; format: organism-based, Homo sapiens; conditions: Huh-7

NCCc1cccc(NC(=O)[C@H]2[C@H]3CCCCC[C@H]3[C@H]2NC(=O)OCc2ccccc2)c1
EC50 (dengue virus type 2 [1]): 8.83 µM | EC90 (dengue virus type 2 [1]; EC90 CI (lower) 4.071 uM, EC90 CI (upper) 8.838 uM, Hill slope -5.677, Maximum measured 107.479 %, Minimum measured 11.429 %, R squared 0.889): 13 µM | EC50 (dengue virus type 2 [2]; Dengue virus, VeroE6/TMPRSS2): 0.852 µM | EC90 (dengue virus type 2 [2]; Dengue virus, VeroE6/TMPRSS2, Hill slope -0.607, Maximum measured 105.284 %, Minimum measured 41.503 %, R squared 0.471): > 1.85 µM | EC50 (Zika virus [3]; Zika virus, VeroE6/TMPRSS2): 1.51 µM | EC90 (Zika virus [3]; Zika virus, VeroE6/TMPRSS2): 27.9 µM | EC50 (Zika virus [4]; VeroE6/TMPRSS2): 16.3 µM | EC90 (Zika virus [4]; VeroE6/TMPRSS2, Baseline response 0 %, Hill slope -67.816, Maximum measured 128.901 %, Maximum response 100 %, Minimum measured 6.251 %, R squared 0.855): 16.9 µM | EC50 (Zika virus [5]; Vero C1008): > 50 µM | EC90 (Zika virus [5]; Vero C1008, Baseline response 0 %, Hill slope 0.101, Maximum measured 6.245 %, Maximum response 100 %, Minimum measured -3.134 %, R squared 0.013): > 50 µM | EC50 (dengue virus type 2 [6]): > 1.85 µM | EC90 (dengue virus type 2 [6]; VeroE6/TMPRSS2, Maximum measured 147.779 %, Minimum measured 82.782 %): > 1.85 µM

CC[C@@H](Cc1nnn[nH]1)c1ccc(NC(=O)c2cc(Cl)cc(NC(=O)OCc3ccccc3)c2)cc1
EC50 (dengue virus type 2 [1]): 43.5 µM | EC90 (dengue virus type 2 [1]; Hill slope -24.458, Maximum measured 108.477 %, Minimum measured 3.247 %, R squared 0.952): 47.6 µM | EC50 (dengue virus type 2 [2]; Dengue virus, VeroE6/TMPRSS2): 10.4 µM | EC90 (dengue virus type 2 [2]; Dengue virus, VeroE6/TMPRSS2, Hill slope -0.442, Maximum measured 140.797 %, Minimum measured 47.356 %, R squared 0.351): > 16.7 µM | EC50 (Zika virus [3]; Zika virus, VeroE6/TMPRSS2): 1.93 µM | EC90 (Zika virus [3]; Zika virus, VeroE6/TMPRSS2): 2.9 µM | EC50 (Zika virus [4]; VeroE6/TMPRSS2): > 50 µM | EC90 (Zika virus [4]; VeroE6/TMPRSS2): > 50 µM | EC50 (Zika virus [5]; Vero C1008): > 50 µM | EC90 (Zika virus [5]; Vero C1008, Baseline response 0 %, Hill slope 5.649, Maximum measured 5.74 %, Maximum response 100 %, Minimum measured -1.447 %, R squared 0.24): > 50 µM | EC50 (dengue virus type 2 [6]): > 5.56 µM | EC90 (dengue virus type 2 [6]; VeroE6/TMPRSS2, Baseline response 0 %, Hill slope -0.186, Maximum measured 93.084 %, Maximum response 100 %, Minimum measured 36.595 %, R squared 0.076): > 5.56 µM

COc1cc(Cc2c(-c3ccc(F)cc3)noc2C)nc(N2CCNCC2)n1
EC50 (dengue virus type 2 [7]): > 18 µM

Cc1[nH]c2ccccc2c1CN1CCC(c2c[nH]c3ncccc23)CC1
EC50 (dengue virus type 2 [1]): 7.05 µM | EC90 (dengue virus type 2 [1]; EC90 CI (lower) 3.837 uM, EC90 CI (upper) 5.899 uM, Hill slope -5.588, Maximum measured 107.944 %, Minimum measured 3.436 %, R squared 0.982): 10.5 µM | EC90 (dengue virus type 2 [2]; Hill slope -0.694, Maximum measured 115.257 %, Minimum measured 6.241 %, R squared 0.775): > 16.7 µM | EC90 (dengue virus type 2 [2]; Dengue virus, VeroE6/TMPRSS2, Hill slope -0.066, Maximum measured 94.332 %, Minimum measured 44.366 %, R squared 0.022): > 10 µM | EC50 (dengue virus type 2 [2]; veroe6/tmprss2): > 10 µM and 3.01 µM | EC90 (Zika virus [3]; Baseline response 0 %, EC90 CI (lower) 0.367 uM, EC90 CI (upper) 8.175 uM, Hill slope -1.726, Maximum measured 163.583 %, Maximum response 100 %, Minimum measured 5.054 %, P-gp concentration 2 uM, R squared 0.694, P-gp inhibitor Elacidar): 22.1 µM | EC90 (Zika virus [3]; Baseline response 0 %, Hill slope -0.27, Maximum measured 107.973 %, Maximum response 100 %, Minimum measured 29.852 %, P-gp concentration 2 uM, R squared 0.23, P-gp inhibitor Elacidar): > 10 µM | EC50 (Zika virus [3]; Zika virus, VeroE6/TMPRSS2): > 10 µM | EC50 (Zika virus [3]; veroe6/tmprss2): 6.19 µM | EC50 (Zika virus [4]; VeroE6/TMPRSS2): 13.1 µM | EC90 (Zika virus [4]; VeroE6/TMPRSS2, Baseline response 0 %, Hill slope -0.459, Maximum measured 94.623 %, Maximum response 100 %, Minimum measured 4.56 %, R squared 0.472): > 50 µM | EC50 (Zika virus [5]; Vero C1008): 6.51 µM | EC90 (Zika virus [5]; Vero C1008): 7.41 µM | EC50 (dengue virus type 2 [6]): > 16.7 µM | EC90 (dengue virus type 2 [6]; VeroE6/TMPRSS2, Baseline response 0 %, Hill slope -0.265, Maximum measured 113.218 %, Maximum response 100 %, Minimum measured 41.507 %, R squared 0.203): > 16.7 µM

NCc1cccc(NC(=O)[C@@H](NC(=O)OCc2ccccc2)c2ccc(OCc3ccccc3)cc2)c1
EC50 (dengue virus type 2 [7]): > 18 µM

NCc1ccc(-c2ncc(OCC3CCNCC3)nc2-c2ccc(C3CCOCC3)cc2)cc1
EC50 (dengue virus type 2 [7]): > 32 µM

CCCCCC(=O)N[C@H](C(=O)Nc1ccc2[nH]ncc2c1)c1ccc(OCc2ccccc2)cc1
EC50 (dengue virus type 2 [7]): 6.2 µM
